Data as given in PMC10066365, “Nemacol is a small molecule inhibitor of C. elegans vesicular acetylcholine transporter with anthelmintic potential” (Nature Communications, 2023).
Where “and” joins values, the source holds several entries; their conditions need not be identical. Identical values can stand only once.

Tested on: C. elegans
Test: C. elegans motor phenotype scoring on solid media (Punc/jerky-unc, coiled, paralyzed), wild-type young adults
Type: in vivo, Caenorhabditis elegans
Settings: for Fraction Paralyzed / Fraction Punc / Fraction Coiled: single replicate; for AVERAGES Fraction Coiled / AVERAGES Fraction Paralyzed / AVERAGES Fraction Punc: mean of 3 replicates
[1] = 60uM, one hour, young adults, 20 animals per trial, single replicate counts

CCC1CCC(N2CCN(c3ccc([N+](=O)[O-])cc3)CC2)CC1 (centres unmarked) [Nemacol-2]
Fraction Paralyzed (30 μM, 90 min, adults): 0.278 and 0.167
Fraction Punc (30 μM, 90 min, adults): 0.444 and 0.556 and 0.667
C1 (number of animals) (30 μM, 120 min, adults): 3 and 2
C2 (number of animals) (30 μM, 120 min, adults): 1 and 2
NP (number of animals) (30 μM, 120 min, adults): 0
AVERAGES Fraction Coiled (30 μM, 120 min, adults): 0.2
AVERAGES Fraction Paralyzed (30 μM, 120 min, adults): 0.278
AVERAGES Fraction Punc (30 μM, 120 min, adults): 0.5
Fraction Coiled (30 μM, 120 min, adults): 0.222 and 0.167
Fraction Paralyzed (30 μM, 120 min, adults): 0.556 and 0.222 and 0.0556
Fraction Punc (30 μM, 120 min, adults): 0.222 and 0.6 and 0.7
NP (number of animals) (30 μM, 240 min, adults): 2 and 3 and 4
P (number of animals) (30 μM, 240 min, adults): 4 and 2
Punc (number of animals) (30 μM, 240 min, adults): 11 and 12
AVERAGES Fraction Coiled (30 μM, 240 min, adults): 0.0556
AVERAGES Fraction Paralyzed (30 μM, 240 min, adults): 0.148
AVERAGES Fraction Punc (30 μM, 240 min, adults): 0.6
Fraction Coiled (30 μM, 240 min, adults): 0.0556 and 0.111 and 0.0
Fraction Paralyzed (30 μM, 240 min, adults): 0.222 and 0.111
Fraction Punc (30 μM, 240 min, adults): 0.6 and 0.667
C2 (number of animals) (30 μM, 360 min, adults): 0
NP (number of animals) (30 μM, 360 min, adults): 6 and 9 and 10
Punc (number of animals) (30 μM, 360 min, adults): 5 and 7 and 8
AVERAGES Fraction Coiled (30 μM, 360 min, adults): 0.0196
AVERAGES Fraction Paralyzed (30 μM, 360 min, adults): 0.135
AVERAGES Fraction Punc (30 μM, 360 min, adults): 0.376
Fraction Coiled (30 μM, 360 min, adults): 0.0588 and 0.0
Fraction Paralyzed (30 μM, 360 min, adults): 0.3 and 0.111 and 0.0
Fraction Punc (30 μM, 360 min, adults): 0.3 and 0.4 and 0.444
C1 (number of animals) (60 μM, 30 min, adults): 3 and 4
C2 (number of animals) (60 μM, 30 min, adults): 2
NP (number of animals) (60 μM, 30 min, adults): 0
Punc (number of animals) (60 μM, 30 min, adults): 7 and 10 and 12
AVERAGES Fraction Coiled (60 μM, 30 min, adults): 0.3
AVERAGES Fraction Paralyzed (60 μM, 30 min, adults): 0.154
AVERAGES Fraction Punc (60 μM, 30 min, adults): 0.545
Fraction Coiled (60 μM, 30 min, adults): 0.3 and 0.333 and 0.278
Fraction Paralyzed (60 μM, 30 min, adults): 0.3 and 0.111 and 0.0556
Fraction Punc (60 μM, 30 min, adults): 0.4 and 0.556 and 0.667
C2 (number of animals) (60 μM, 60 min, adults): 2 and 4 and 3
NP (number of animals) (60 μM, 60 min, adults): 0
P (number of animals) (60 μM, 60 min, adults): 9 and 7 and 8
Punc (number of animals) (60 μM, 60 min, adults): 4 and 6
AVERAGES Fraction Coiled (60 μM, 60 min, adults): 0.259
AVERAGES Fraction Paralyzed (60 μM, 60 min, adults): 0.444
AVERAGES Fraction Punc (60 μM, 60 min, adults): 0.3
Fraction Coiled (60 μM, 60 min, adults): 0.278 and 0.222
Fraction Paralyzed (60 μM, 60 min, adults): 0.5 and 0.4 and 0.444
Fraction Punc (60 μM, 60 min, adults): 0.222 and 0.333
C1 (number of animals) (60 μM, 90 min, adults): 3 and 4
C2 (number of animals) (60 μM, 90 min, adults): 3 and 4
NP (number of animals) (60 μM, 90 min, adults): 0
AVERAGES Fraction Coiled (60 μM, 90 min, adults): 0.37
AVERAGES Fraction Paralyzed (60 μM, 90 min, adults): 0.426
AVERAGES Fraction Punc (60 μM, 90 min, adults): 0.2
Fraction Coiled (60 μM, 90 min, adults): 0.333 and 0.4
Fraction Paralyzed (60 μM, 90 min, adults): 0.6 and 0.222 and 0.444
Fraction Punc (60 μM, 90 min, adults): 0.0556 and 0.4 and 0.167
C1 (number of animals) (60 μM, 120 min, adults): 2
NP (number of animals) (60 μM, 120 min, adults): 0
AVERAGES Fraction Coiled (60 μM, 120 min, adults): 0.3
AVERAGES Fraction Paralyzed (60 μM, 120 min, adults): 0.4
AVERAGES Fraction Punc (60 μM, 120 min, adults): 0.3
Fraction Coiled (60 μM, 120 min, adults): 0.222 and 0.444
Fraction Paralyzed (60 μM, 120 min, adults): 0.6 and 0.333 and 0.278
Fraction Punc (60 μM, 120 min, adults): 0.167 and 0.444 and 0.278
NP (number of animals) (60 μM, 240 min, adults): 0
AVERAGES Fraction Coiled (60 μM, 240 min, adults): 0.167
AVERAGES Fraction Paralyzed (60 μM, 240 min, adults): 0.352
AVERAGES Fraction Punc (60 μM, 240 min, adults): 0.5
Fraction Coiled (60 μM, 240 min, adults): 0.167
Fraction Paralyzed (60 μM, 240 min, adults): 0.6 and 0.222
Fraction Punc (60 μM, 240 min, adults): 0.222 and 0.6
Punc (number of animals) (60 μM, 360 min, adults): 6 and 11 and 10
Remark on animals at 360 min (60 μM, 360 min, adults): look dead
AVERAGES Fraction Coiled (60 μM, 360 min, adults): 0.0556
AVERAGES Fraction Paralyzed (60 μM, 360 min, adults): 0.4
AVERAGES Fraction Punc (60 μM, 360 min, adults): 0.5
Fraction Coiled (60 μM, 360 min, adults): 0.0556 and 0.111 and 0.0
Fraction Paralyzed (60 μM, 360 min, adults): 0.6 and 0.278
Fraction Punc (60 μM, 360 min, adults): 0.333 and 0.6 and 0.556
atypical locomotion (number of animals) [1]: 3 and 6 and 1
coiled (number of animals) [1]: 9 and 6 and 3 and 1
no phene (number of animals) [1]: 0
paralyzed (number of animals) [1]: 8 and 14 and 18
EC50 (Caenorhabditis elegans, 1 h, Fig. 1, dose-response at 60 min, wild-type young adults, +/- 95% CI, read-out: EC50): 6.6 ± 0.4 µM
